Legend:
[1] = tested on: HER2 wild-type Ba/F3 cells; experiment: Ba/F3 cell proliferation assay, HER2 wild-type; type: cell-based; conditions: Mus musculus, BaF3, 72 h, Celltiter-Glo cell viability; for GI50: read-out: HER2 WT/BaF3 GI50; for Emax: read-out: HER2 WT/BaF3 Imax %
Procedure: (§1) EGFR wild-type Ba/F3 cells (Cobioer, Cat. No. CBP73110) in the logarithmic growth phase were seeded into a 96-well plate at 2.5×10^3 cells/[…] in a growth medium, and HER2 wild-type Ba/F3 cells (Cobioer, Cat. No. CBP73110) or HER2 A775_G776insYVMA mutant Ba/F3 (Cobioer, Cat. No. CBP73184) in the logarithmic growth phase were seeded into a 96-well plate at 5×10^3 cells/100 μL in a growth medium.
(§2) The plates were placed in a cell incubator at 37° C. overnight. The compound diluted in 3-fold gradient with a medium was added to the plates at 100 μL/well the next day. All treatments were performed in triplicate. The plates were cultured in the cell incubator at 37° C. for another 72 h. Celltiter-Glo Luminescent cell viability assay was performed.
(§3) The cell proliferation rate corresponding to each well was calculated according to the following formula: proliferation %=(test compound well G3-GO average value)/(DMSO control well G3 average value -GO average value)×100. According to the corresponding proliferation rate and concentration of each gradient concentration well, a gradient curve of cell proliferation was fitted using Prism Graphpad software, and GI50 (GI50 is defined as the concentration of a compound corresponding to the cell proliferation inhibition rate of 50%) of the compound was calculated.

[2] = in vivo; set-up: species or system SD rats; conditions: both sexes, SD, rat, po, 50 mg/kg
Procedure: SD rats were used as test animals. After intragastric (i.g.) administration of example compounds to SD rats, the plasma concentrations at different time points were measured by the LC/MS/MS method. The pharmacokinetic behavior of the compound of the present disclosure in SD rats was studied, and its pharmacokinetic profiles were evaluated.
Four SD rats, of which half were male and half female, were provided by Vital River Laboratory Animal Technology Co., Ltd. The animals were fasted overnight and then intragastrically dosed.
A certain amount of example compound was weighed out and dissolved in 5% DMSO+20% PEG400+70% (10% TPGS)+5% (1% HPMC K100LV) to prepare a 5 mg/mL colorless clear solution.
The dose administered was 50 mg/kg, and the volume was 10.0 mL/kg.
(§4) 0.2-mL blood samples were collected from the orbit before administration and 0.25 h, 0.5 h, 1.0 h, 2.0 h, 4.0 h, 6.0 h, 8.0 h, 11.0 h, and 24.0 h after administration. The blood samples were placed into EDTA-K2 anticoagulation test tubes and centrifuged at 10,000 rpm for 1 min (4° C.), and plasma was separated within 1 h and stored in dry ice before analysis. The procedure starting from the blood collection to the centrifugation was performed under ice-bath conditions. Access to food was given 2 hours after administration.
After administration of different concentrations of the test compounds, the plasma concentration of the test compound in SD rats was determined: plasma samples (50 μL) were collected from the SD rats at various time points after administration, and 25 μL of camptothecin (1 μg/mL) and 450 μL of acetonitrile were added to each of the samples. The mixtures were vortexed and centrifuged at 3700 rpm for 10 min. 0.1 μL of the supernatant was taken for LC/MS/MS analysis.

[3] = tested on: EGFR wild-type Ba/F3 cells; experiment: Ba/F3 cell proliferation assay, EGFR wild-type; type: cell-based; conditions: 72 h, Celltiter-Glo cell viability; for GI50: Mus musculus, BaF3, read-out: EGFR WT/BaF3 GI50
Procedure: as §1, §2, §3

[4] = in vivo; set-up: species or system C57 mice; conditions: female, C57, mouse, po, 50 mg/kg
Procedure: C57 mice were used as test animals. After intragastric (i.g.) administration of example compounds to C57 mice, the plasma concentrations at different time points were measured by the LC/MS/MS method. The pharmacokinetic behavior of the compounds of the present disclosure in C57 mice was studied and their pharmacokinetic profiles were evaluated.
Twenty-seven C57 mice, female, were evenly divided into 3 groups, provided by Beijing HFK Bioscience Co., Ltd., and intragastrically administered.
A certain amount of example compound was weighed out and dissolved in 5% DMSO+20% PEG400+70% (10% TPGS)+5% (1% HPMC K100LV) to prepare a 2.5 mg/mL colorless clear solution.
The dose administered was 50 mg/kg, and the volume was 20.0 mL/kg.
as §4, with “0.1-mL blood” for “0.2-mL blood”, “for 2” for “for 1”, “stored at −20° C.” for “stored in dry ice”
After administration of different concentrations of the test compounds, the plasma concentrations of the test compounds in C57 mice were determined: plasma samples (50 μL) were collected from the C57 mice at various time points after administration, and 25 μL of labetalol (1 μg/mL) and 450 μL of acetonitrile were added to each of the samples.
The mixtures were vortexed and centrifuged at 3700 rpm for 10 min. 0.1 μL of the supernatant was taken for LC/MS/MS analysis.

[5] = tested on: HER2 A775_G776insYVMA mutant Ba/F3; experiment: Ba/F3 cell proliferation assay, HER2 A775_G776insYVMA mutant; type: cell-based; conditions: Mus musculus, BaF3, 72 h, Celltiter-Glo cell viability; for GI50: read-out: HER2 A775_G776 ins YVMA/BaF3 GI50; for Emax: read-out: HER2 A775_G776 ins YVMA/BaF3 Imax %
Procedure: as §1, §2, §3

## C=CC(=O)N1[C@@H]2CC[C@H]1C[C@@H](Oc1ccc3ncnc(Nc4ccc(Oc5ccn6ncnc6c5)c(C)c4F)c3c1)C2 [Example 10, 1-(endo-3-((4-((4-([1,2,4]Triazolo[1,5-a]pyridin-7-yloxy)-2-fluoro-3-methylphenyl)amino)quinazolin-6-yl)oxy)-8-azabicyclo[3.2.1]octan-8-yl)prop-2-en-1-one]
[1]
  GI50: 9.3 nM
  Emax: 100%
[2]
  AUC(0-t): 70800 ng·h/mL
  CL/F: 14.7 mL/min/kg
  Cmax: 19300 ng/mL
  Vd/F: 2.95 L/kg
  half-life: 2.3 h
[3]
  EGFR WT/BaF3 Imax %: 100%
  GI50: 2840 nM
[4]
  AUC(0-t): 31200 ng·h/mL
  CL/F: 26.5 mL/min/kg
  Cmax: 14000 ng/mL
  Vd/F: 3.75 L/kg
  half-life: 1.6 h
[5]
  GI50: 10.3 nM
  Emax: 100%

## C=CC(=O)N1[C@@H]2CC[C@H]1C[C@@H](Oc1ccc3ncnc(Nc4ccc(Oc5ccc6c(c5)ncn6C)c(C)c4F)c3c1)C2 [Example 18, 1-(endo-3-((4-((2-Fluoro-3-methyl-4-((1-methyl-1H-benzo[d]imidazol-5-yl)oxy)phenyl)amino)quinazolin-6-yl)oxy)-8-azabicyclo[3.2.1]octan-8-yl)prop-2-en-1-one]
[1]
  GI50: 17.7 nM
  Emax: 100%
[3]
  EGFR WT/BaF3 Imax %: 100%
  GI50: 2130 nM
[4]
  AUC(0-t): 44900 ng·h/mL
  CL/F: 18.5 mL/min/kg
  Cmax: 12700 ng/mL
  Vd/F: 3.93 L/kg
  half-life: 2.5 h
[5]
  GI50: 23.6 nM
  Emax: 100%

## C=CC(=O)N1[C@@H]2CC[C@H]1C[C@H](Oc1cc3c(Nc4ccc(Oc5ccn6ncnc6c5)c(C)c4)ncnc3cn1)C2 [Example 26, 1-(exo-3-((4-((4-([1,2,4]Triazolo[1,5-a]pyridin-7-yloxy)-3-methylphenyl)amino)pyrido[3,4-d]pyrimidin-6-yl)oxy)-8-azabicyclo[3.2.1]octan-8-yl)prop-2-en-1-one]
[1]
  GI50: 9.2 nM
  Emax: 100%
[3]
  EGFR WT/BaF3 Imax %: 100%
  GI50: 1630 nM
[4]
  AUC(0-t): 32100 ng·h/mL
  CL/F: 26 mL/min/kg
  Cmax: 11300 ng/mL
  Vd/F: 2.88 L/kg
  half-life: 1.3 h
[5]
  GI50: 23.4 nM
  Emax: 100%

Reference: US20250206760A1, “NITROGEN-CONTAINING HETEROCYCLIC COMPOUND, PREPARATION METHOD THEREFOR, AND PHARMACEUTICAL APPLICATION THEREOF” (Jiangsu Hengrui Pharmaceuticals Co., Ltd., priority 2022, published 2025)
